# From PMC4819940 (Cancer Chemotherapy and Pharmacology, 2016)
# Assays:
# [1] = Plasma pharmacokinetics of AZD5363 after a single dose and multiple doses; assay type: in vivo, human
# Description: […] area under the plasma concentration–time curve (AUC), maximum plasma (peak) drug concentration (Cmax), time to reach Cmax (tmax), apparent plasma clearance (CL/F), and oral volume of distribution at steady state (Vss/F).
# [2] = system: advanced solid tumors in Japanese patients; assay: Objective tumor response (RECIST version 1.1); assay type: in vivo, human; conditions: for Best objective response: Non-response, Not evaluable / Best objective response: Non-response, RECIST progression / Best objective response: Non-response, Stable disease ≥6 weeks / Best objective response: Complete response / Best objective response: Partial response: patients, count (%); for Best objective response: Complete response / Best objective response: Partial response: response confirmed after 4 weeks; for time to partial response after starting AZD5363: Akt1 (E17K) positive; for duration of partial response at data cutoff: data cutoff July 7, 2014
# Description: Objective tumor response assessments were based on Response Evaluation Criteria in Solid Tumors (RECIST) version 1.1.
# Tumor samples were screened for mutations using a clinical sequencing platform consisting of an in-house cancer gene panel (National Cancer Center OncoPanel version 2) based on an Agilent Sure Select system and an Illumina MiSeq sequencer. The target regions to be captured were the exons of 90 targetable or actionable genes and the introns of 10 protein kinase genes. Samples with <10 % tumor cell content were excluded from the analysis.
# [3] = system: Western patients with advanced solid malignancies; design: method as in earlier work; conditions: 4/3 dosing schedule; cited from earlier work
# [4] = single dose, Total, n=41, median (range)
# [5] = breast cancer patient, 640 mg bid intermittent 2/5
# [6] = ovarian cancer patient, 480 mg bid intermittent 4/3
smiles,measurement,setting,value
NC1(C(=O)N[C@@H](CCO)c2ccc(Cl)cc2)CCN(c2ncnc3[nH]ccc23)CC1 [AZD5363],t half,"[1]; single dose, 360 mg bid intermittent 4/3 cohort, n=8, median (range)",9.7 (5.3‒11.1) hours
same,t half,"[1]; single dose, 400 mg bid continuous cohort, n=5, median (range)",9.6 (9.0‒13.0) hours
same,t half,"[1]; single dose, 480 mg bid intermittent 4/3 cohort, n=6, median (range)",9.3 (8.1‒11.6) hours
same,t half,"[1]; single dose, 640 mg bid intermittent 2/5 cohort, n=6, median (range)",10.1 (9.4‒13.7) hours
same,Tmax,[1]; [4],1.98 (0.87‒4.02) hours
same,t half,[1]; [4],9.9 (5.3‒13.7) hours
same,duration of distribution phase following Cmax,"[1]; single oral doses, generally lasting up to",6 to 8 h
same,"Best objective response: Non-response, Not evaluable",[2]; 80 mg bid continuous,0 (0.0)
same,"Best objective response: Non-response, RECIST progression",[2]; 80 mg bid continuous,1 (33.3)
same,"Best objective response: Non-response, Stable disease ≥6 weeks",[2]; 80 mg bid continuous,2 (66.7)
same,Best objective response: Complete response,[2]; 80 mg bid continuous,0 (0.0)
same,Best objective response: Partial response,[2]; 80 mg bid continuous,0 (0.0)
same,"Best objective response: Non-response, Not evaluable",[2]; 240 mg bid continuous,1 (14.3)
same,"Best objective response: Non-response, RECIST progression",[2]; 240 mg bid continuous,5 (71.4)
same,"Best objective response: Non-response, Stable disease ≥6 weeks",[2]; 240 mg bid continuous,1 (14.3)
same,Best objective response: Complete response,[2]; 240 mg bid continuous,0 (0.0)
same,Best objective response: Partial response,[2]; 240 mg bid continuous,0 (0.0)
same,"Best objective response: Non-response, Not evaluable",[2]; 320 mg bid continuous,2 (66.7)
same,"Best objective response: Non-response, RECIST progression",[2]; 320 mg bid continuous,1 (33.3)
same,"Best objective response: Non-response, Stable disease ≥6 weeks",[2]; 320 mg bid continuous,0 (0.0)
same,Best objective response: Complete response,[2]; 320 mg bid continuous,0 (0.0)
same,Best objective response: Partial response,[2]; 320 mg bid continuous,0 (0.0)
same,"Best objective response: Non-response, Not evaluable",[2]; 360 mg bid intermittent 4/3,2 (25.0)
same,"Best objective response: Non-response, RECIST progression",[2]; 360 mg bid intermittent 4/3,3 (37.5)
same,"Best objective response: Non-response, Stable disease ≥6 weeks",[2]; 360 mg bid intermittent 4/3,3 (37.5)
same,Best objective response: Complete response,[2]; 360 mg bid intermittent 4/3,0 (0.0)
same,Best objective response: Partial response,[2]; 360 mg bid intermittent 4/3,0 (0.0)
same,"Best objective response: Non-response, Not evaluable",[2]; 400 mg bid continuous,1 (25.0)
same,"Best objective response: Non-response, RECIST progression",[2]; 400 mg bid continuous,3 (75.0)
same,"Best objective response: Non-response, Stable disease ≥6 weeks",[2]; 400 mg bid continuous,0 (0.0)
same,Best objective response: Complete response,[2]; 400 mg bid continuous,0 (0.0)
same,Best objective response: Partial response,[2]; 400 mg bid continuous,0 (0.0)
same,"Best objective response: Non-response, Not evaluable",[2]; 480 mg bid intermittent 4/3,0 (0.0)
same,"Best objective response: Non-response, RECIST progression",[2]; 480 mg bid intermittent 4/3,1 (16.7)
same,"Best objective response: Non-response, Stable disease ≥6 weeks",[2]; 480 mg bid intermittent 4/3,4 (66.7)
same,Best objective response: Complete response,[2]; 480 mg bid intermittent 4/3,0 (0.0)
same,Best objective response: Partial response,[2]; 480 mg bid intermittent 4/3,1 (16.7)
same,"Best objective response: Non-response, Not evaluable",[2]; 640 mg bid intermittent 2/5,1 (16.7)
same,"Best objective response: Non-response, RECIST progression",[2]; 640 mg bid intermittent 2/5,4 (66.7)
same,"Best objective response: Non-response, Stable disease ≥6 weeks",[2]; 640 mg bid intermittent 2/5,0 (0.0)
same,Best objective response: Complete response,[2]; 640 mg bid intermittent 2/5,0 (0.0)
same,Best objective response: Partial response,[2]; 640 mg bid intermittent 2/5,1 (16.7)
same,"Best objective response: Non-response, Not evaluable",[2]; Total,7 (18.9)
same,"Best objective response: Non-response, RECIST progression",[2]; Total,18 (48.6)
same,"Best objective response: Non-response, Stable disease ≥6 weeks",[2]; Total,10 (27.0)
same,Best objective response: Complete response,[2]; Total,0 (0.0)
same,Best objective response: Partial response,[2]; Total,2 (5.4)
same,patients with confirmed partial response,"[2]; all cohorts, both Akt1 (E17K) mutation positive",two
same,"best response, decrease in the SLD of target lesions",[2]; [5],60.8%
same,day on which progression was confirmed,[2]; [5],378 days
same,time to partial response after starting AZD5363,[2]; [5],44 days
same,patients with stable disease for 12 weeks or more,[2]; of the 10 patients with stable disease,Seven
same,time partial response was maintained,[2]; one patient in the 480 mg bid 4/3 dosing cohort,> 2 years
same,"best response, decrease in the sum of the longest diameter (SLD) of target lesions",[2]; [6],55.8%
same,duration of response,"[2]; ovarian cancer patient, 480 mg bid intermittent 4/3, as of September 2015, according to the investigator",1177 days
same,time to partial response after starting AZD5363,[2]; [6],79 days
same,duration of partial response at data cutoff,[2]; patient in the 480 mg bid intermittent 4/3 cohort,675 days
same,duration of partial response at data cutoff,[2]; patient in the 640 mg bid intermittent 2/5 cohort,127 days
same,patients with stable disease,[2]; three on continuous dosing and seven on intermittent dosing,Ten
same,patients with a complete response,[2]; tumor response analysis set,no patients
same,patients with disease progression,"[2]; tumor response analysis set, 37 patients",48.6%
same,response of PIK3CA mutation positive patients to AZD5363 treatment,[2]; two additional patients identified as PIK3CA mutation positive,did not respond
same,recommended dose for AZD5363 monotherapy,[3],480 mg bid
